Measurements: ChEMBL document CHEMBL1201862, “PubChem BioAssay data set” (2004)
Calls of active or inactive are those of the source.

Legend:
Coagulation factor XII = target: T1, Coagulation factor XII (Homo sapiens, UniProt P00748); assay type: functional;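 note: activated factor XIIa alpha cleaving a fluorogenic AMC peptide substrate; inhibitor potency from loss of enzyme activity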
T1 sequence (P00748 whole entry): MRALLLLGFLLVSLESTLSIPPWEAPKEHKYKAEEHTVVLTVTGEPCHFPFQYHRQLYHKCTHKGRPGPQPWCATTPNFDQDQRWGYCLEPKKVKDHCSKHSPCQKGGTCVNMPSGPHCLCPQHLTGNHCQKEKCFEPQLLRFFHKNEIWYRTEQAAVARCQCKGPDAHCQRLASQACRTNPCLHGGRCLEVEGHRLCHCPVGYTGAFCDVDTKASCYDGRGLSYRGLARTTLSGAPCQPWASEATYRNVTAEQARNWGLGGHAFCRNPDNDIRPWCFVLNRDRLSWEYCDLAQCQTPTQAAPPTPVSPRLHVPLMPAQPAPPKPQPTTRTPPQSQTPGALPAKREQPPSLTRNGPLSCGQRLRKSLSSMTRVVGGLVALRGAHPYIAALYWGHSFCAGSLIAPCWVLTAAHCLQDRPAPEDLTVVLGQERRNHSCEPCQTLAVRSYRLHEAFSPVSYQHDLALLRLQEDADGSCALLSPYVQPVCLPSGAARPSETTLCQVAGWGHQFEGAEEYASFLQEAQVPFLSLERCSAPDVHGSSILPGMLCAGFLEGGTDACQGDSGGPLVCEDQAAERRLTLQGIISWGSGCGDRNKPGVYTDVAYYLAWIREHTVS

[1] = HIV-1 Vif–A3G interaction blockers – biochemical, TR-FRET, GST-Vif 1-94, biotin-A3G peptide, dose response retest, primary screen (AID 1117319); assay type: functional;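 note: TR-FRET signal of purified GST-Vif binding a biotinylated A3G peptide; inhibitors lower the FRET signal by blocking Vif and A3G binding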
[2] = M. tuberculosis H37Rv growth inhibitors, H37Rv strain (AID 1626); assay type: functional
Estrogen receptor beta [3] = target: T2, Estrogen receptor beta (Homo sapiens, UniProt Q92731);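 note: recombinant ER-beta bound to coactivator SRC1 peptide in presence of estradiol agonist; inhibitors block coactivator peptide binding and lower the FRET signal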
Estrogen receptor beta [4] = target: T2, Estrogen receptor beta; assay: blockers of SRC-3 recruitment to ERβ – biochemical, ELISA, streptavidin-HRP readout, orthogonal assay, confirmation (AID 1060)
Bcl-2-related protein A1 = target: T3, Bcl-2-related protein A1 (Mus musculus, UniProt Q07440); assay type: functional;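 note: confirmatory dose–response counterscreen on Bfl-1, used to check hits from a UBC13 polyubiquitin inhibitor campaign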
T3 sequence (Q07440 whole entry): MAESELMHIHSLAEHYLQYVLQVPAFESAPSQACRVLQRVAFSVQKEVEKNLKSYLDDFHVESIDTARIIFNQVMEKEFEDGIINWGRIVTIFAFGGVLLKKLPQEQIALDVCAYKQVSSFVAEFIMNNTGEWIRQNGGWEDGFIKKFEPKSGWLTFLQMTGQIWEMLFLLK

[5] = target: T4, Ubiquitin-conjugating enzyme E2 N (Homo sapiens, UniProt P61088); assay type: functional
T4 sequence (P61088 whole entry): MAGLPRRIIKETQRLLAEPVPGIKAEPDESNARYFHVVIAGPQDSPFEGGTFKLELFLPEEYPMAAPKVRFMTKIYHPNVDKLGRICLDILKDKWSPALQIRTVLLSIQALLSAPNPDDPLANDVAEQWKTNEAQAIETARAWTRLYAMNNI

[6] = target: T4, Ubiquitin-conjugating enzyme E2 N; assay type: functional; remark: listed apart in the source
Estrogen receptor = target: T5, Estrogen receptor (Homo sapiens, UniProt P03372);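 note: potency for inhibiting coactivator peptide recruitment to the receptor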
T5 sequence (P03372 whole entry): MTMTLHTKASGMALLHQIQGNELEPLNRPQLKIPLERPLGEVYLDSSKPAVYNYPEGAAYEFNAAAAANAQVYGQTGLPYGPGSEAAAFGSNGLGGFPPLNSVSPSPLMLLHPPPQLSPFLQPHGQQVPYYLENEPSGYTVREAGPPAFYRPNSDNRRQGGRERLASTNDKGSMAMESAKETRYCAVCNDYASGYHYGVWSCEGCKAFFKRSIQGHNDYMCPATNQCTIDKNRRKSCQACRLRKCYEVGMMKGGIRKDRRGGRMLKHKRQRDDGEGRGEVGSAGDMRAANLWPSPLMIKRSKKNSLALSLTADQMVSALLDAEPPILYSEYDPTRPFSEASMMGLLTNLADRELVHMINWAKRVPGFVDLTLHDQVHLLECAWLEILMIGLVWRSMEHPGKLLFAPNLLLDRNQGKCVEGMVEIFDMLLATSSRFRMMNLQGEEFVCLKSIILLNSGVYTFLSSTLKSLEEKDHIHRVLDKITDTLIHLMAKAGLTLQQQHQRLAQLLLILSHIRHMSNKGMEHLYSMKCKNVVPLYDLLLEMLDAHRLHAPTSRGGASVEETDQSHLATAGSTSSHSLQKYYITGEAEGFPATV

[7] = target: Glyceraldehyde-3-phosphate dehydrogenase (Homo sapiens, UniProt P04406)
[8] = target: T6, Alkaline phosphatase, tissue-nonspecific isozyme (Homo sapiens, UniProt P05186); assay: potency against alkaline phosphatase TNAP – biochemical, luminescent, dose response, SAR follow-up (AID 1056)
T6 sequence (P05186 whole entry): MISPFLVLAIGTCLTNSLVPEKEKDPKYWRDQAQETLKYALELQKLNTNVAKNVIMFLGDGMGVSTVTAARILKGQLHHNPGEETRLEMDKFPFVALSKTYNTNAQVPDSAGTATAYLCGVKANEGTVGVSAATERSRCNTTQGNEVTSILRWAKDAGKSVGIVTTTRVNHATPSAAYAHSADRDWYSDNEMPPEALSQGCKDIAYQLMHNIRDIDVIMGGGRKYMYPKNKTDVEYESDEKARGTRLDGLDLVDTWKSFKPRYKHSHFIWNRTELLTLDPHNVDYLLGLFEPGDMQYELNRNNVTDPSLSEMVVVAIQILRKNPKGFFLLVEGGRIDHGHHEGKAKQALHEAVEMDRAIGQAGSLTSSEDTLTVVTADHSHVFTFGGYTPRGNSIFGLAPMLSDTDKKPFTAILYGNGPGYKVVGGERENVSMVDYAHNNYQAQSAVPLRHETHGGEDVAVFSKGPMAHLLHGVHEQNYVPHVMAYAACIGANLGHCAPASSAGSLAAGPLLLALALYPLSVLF

[9] = tested on: Streptococcus sp. 'group A'; assay: Streptococcus pyogenes SK(-)GAS viability under kanamycin – luminescence, BacTiterGlo, confirmation, counter-screen for streptokinase expression inhibitor project, dose response (AID 1900); assay type: functional, organism-based
Streptococcus = assay: GAS UMAA2166 growth inhibition – luminescence, BacTiterGlo, counter-screen for streptokinase expression inhibitor project, dose response (AID 1915); assay type: functional, organism-based;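 note: potency for reduction of bacterial viability or growth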
[10] = target: T7, Short transient receptor potential channel 4 (Mus musculus, UniProt Q9QUQ5); assay: calcium entry via TRPC4 opening agents – cell-based, HEK293 TRPC4/mu-opioid, Fluo-4 calcium, dose response (AID 434937); assay type: functional
T7 sequence (Q9QUQ5 whole entry): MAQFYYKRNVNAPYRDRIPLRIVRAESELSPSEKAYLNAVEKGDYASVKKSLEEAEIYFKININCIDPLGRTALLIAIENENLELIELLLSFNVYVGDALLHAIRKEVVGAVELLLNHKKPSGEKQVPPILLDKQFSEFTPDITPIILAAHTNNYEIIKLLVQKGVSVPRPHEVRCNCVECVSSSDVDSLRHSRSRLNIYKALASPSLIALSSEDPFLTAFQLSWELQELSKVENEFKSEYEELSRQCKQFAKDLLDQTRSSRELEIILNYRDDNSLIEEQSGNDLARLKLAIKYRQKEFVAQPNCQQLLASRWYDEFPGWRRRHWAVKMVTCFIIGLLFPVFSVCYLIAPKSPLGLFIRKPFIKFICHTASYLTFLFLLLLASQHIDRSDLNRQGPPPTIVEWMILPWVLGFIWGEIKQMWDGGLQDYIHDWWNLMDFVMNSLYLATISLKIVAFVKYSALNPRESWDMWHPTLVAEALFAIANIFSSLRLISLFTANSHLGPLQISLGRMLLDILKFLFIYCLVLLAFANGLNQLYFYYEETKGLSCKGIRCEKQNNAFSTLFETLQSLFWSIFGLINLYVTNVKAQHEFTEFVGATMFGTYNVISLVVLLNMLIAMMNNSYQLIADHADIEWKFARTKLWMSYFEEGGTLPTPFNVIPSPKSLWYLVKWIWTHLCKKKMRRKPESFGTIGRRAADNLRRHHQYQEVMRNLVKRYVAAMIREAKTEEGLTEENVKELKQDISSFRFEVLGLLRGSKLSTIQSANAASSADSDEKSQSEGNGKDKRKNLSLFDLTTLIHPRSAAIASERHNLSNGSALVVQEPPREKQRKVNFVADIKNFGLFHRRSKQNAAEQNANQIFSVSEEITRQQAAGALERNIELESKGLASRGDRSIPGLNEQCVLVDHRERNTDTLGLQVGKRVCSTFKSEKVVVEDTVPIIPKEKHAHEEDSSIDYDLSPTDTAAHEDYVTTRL

Vero [11] = assay: cells; assay type: functional, cell-based; conditions: Chlorocebus sabaeus
Vero [12] = assay: cells; assay type: functional; conditions: Chlorocebus sabaeus
[13] = target: T8, Mannose-6-phosphate isomerase (Homo sapiens, UniProt P34949); assay: MPI inhibition at elevated mannose 6-phosphate – biochemical, fluorescence intensity, high mannose 6-phosphate, primary screen (AID 1220)
T8 sequence (P34949 whole entry): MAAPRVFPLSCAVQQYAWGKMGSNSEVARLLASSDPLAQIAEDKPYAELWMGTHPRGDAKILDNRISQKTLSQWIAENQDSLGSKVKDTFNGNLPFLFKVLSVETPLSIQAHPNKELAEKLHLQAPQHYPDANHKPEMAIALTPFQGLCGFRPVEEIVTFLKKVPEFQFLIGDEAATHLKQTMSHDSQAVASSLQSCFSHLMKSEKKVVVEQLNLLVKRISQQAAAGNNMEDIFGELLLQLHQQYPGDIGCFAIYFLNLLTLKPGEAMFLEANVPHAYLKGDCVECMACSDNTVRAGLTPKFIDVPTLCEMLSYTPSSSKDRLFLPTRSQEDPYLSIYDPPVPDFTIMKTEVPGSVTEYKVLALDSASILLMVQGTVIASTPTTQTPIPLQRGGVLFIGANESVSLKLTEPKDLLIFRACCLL

[14] = NIH-3T3 fibroblast cytotoxicity, dose response, cytotoxicity control, cell-based, fluorescence, Alamar Blue, secondary assay (AID 2327); assay type: functional;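 note: NIH-3T3 mouse fibroblasts cultured with fluconazole at 8 µg/mL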
[15] = luciferase reporter signal suppression in cells – H4 neuroglioma cells, luminescence, dose response (AID 1990); assay type: functional, cell-based
cells [16] = assay type: functional, cell-based
[17] = Luminescence Cell-Based Dose Response HTS to Identify Inhibitors of 5'UTR Stem-Loop Driven Prion Protein mRNA Translation in H4 Neuroglioblastoma Cells. [Related pubchem assays: 1827 (Project Summary), 1813 (Primary HTS)]; assay type: functional
[18] = alpha-synuclein stem-loop luciferase translation blockers – H4 neuroglioma cells, luminescence, confirmation (AID 1988); assay type: functional, cell-based
[19] = fluconazole-exposed Candida albicans growth modulators – fluorescence, retest, confirmation (AID 2467); assay type: functional, cell-based
cells [20] = assay type: functional, cell-based; remark: listed apart in the source
[21] = target: Induced myeloid leukemia cell differentiation protein Mcl-1 (Homo sapiens, UniProt Q07820); assay type: functional
Vero [22] = assay: viability of Vero cells under compound – cytotoxicity control for flavivirus capping enzyme inhibitors (AID 588742); assay type: functional; conditions: Chlorocebus sabaeus
Genome polyprotein = Genome polyprotein (dengue virus type 2, UniProt P29990); assay: flavivirus cap methylation enzyme inhibition – biochemical, confirmation dose response, primary screen (AID 588689); assay type: functional
[23] = viability loss in THP-1 monocytes – THP-1 cells, cytotoxicity control for Vif-APOBEC3G degradation inhibitor project, dose response (AID 1117359); assay type: functional; conditions: THP-1

T2 sequence (Q92731 whole entry): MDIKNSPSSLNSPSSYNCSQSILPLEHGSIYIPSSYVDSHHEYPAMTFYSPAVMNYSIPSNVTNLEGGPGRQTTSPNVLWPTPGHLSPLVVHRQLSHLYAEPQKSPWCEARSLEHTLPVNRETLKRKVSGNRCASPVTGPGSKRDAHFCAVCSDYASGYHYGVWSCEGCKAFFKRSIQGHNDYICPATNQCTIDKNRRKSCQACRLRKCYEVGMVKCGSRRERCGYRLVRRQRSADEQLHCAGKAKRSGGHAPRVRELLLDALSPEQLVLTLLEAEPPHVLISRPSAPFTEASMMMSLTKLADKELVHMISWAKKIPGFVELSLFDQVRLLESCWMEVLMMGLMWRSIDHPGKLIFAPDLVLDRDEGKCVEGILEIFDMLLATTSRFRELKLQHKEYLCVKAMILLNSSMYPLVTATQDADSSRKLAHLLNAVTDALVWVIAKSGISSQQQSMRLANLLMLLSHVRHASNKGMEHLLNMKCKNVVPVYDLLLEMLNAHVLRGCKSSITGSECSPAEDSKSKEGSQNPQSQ
Sequence of Glyceraldehyde-3-phosphate dehydrogenase (P04406 whole entry): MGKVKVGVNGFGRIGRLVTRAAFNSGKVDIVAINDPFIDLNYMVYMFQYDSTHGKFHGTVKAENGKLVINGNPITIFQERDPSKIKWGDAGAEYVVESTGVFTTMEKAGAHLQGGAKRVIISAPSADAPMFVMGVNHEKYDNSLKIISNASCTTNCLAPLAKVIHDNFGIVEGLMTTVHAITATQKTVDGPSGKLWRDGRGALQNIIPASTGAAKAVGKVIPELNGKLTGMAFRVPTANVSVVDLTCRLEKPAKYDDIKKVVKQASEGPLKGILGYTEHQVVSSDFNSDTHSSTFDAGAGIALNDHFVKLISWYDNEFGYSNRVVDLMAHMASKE
Sequence of Induced myeloid leukemia cell differentiation protein Mcl-1 (Q07820 whole entry): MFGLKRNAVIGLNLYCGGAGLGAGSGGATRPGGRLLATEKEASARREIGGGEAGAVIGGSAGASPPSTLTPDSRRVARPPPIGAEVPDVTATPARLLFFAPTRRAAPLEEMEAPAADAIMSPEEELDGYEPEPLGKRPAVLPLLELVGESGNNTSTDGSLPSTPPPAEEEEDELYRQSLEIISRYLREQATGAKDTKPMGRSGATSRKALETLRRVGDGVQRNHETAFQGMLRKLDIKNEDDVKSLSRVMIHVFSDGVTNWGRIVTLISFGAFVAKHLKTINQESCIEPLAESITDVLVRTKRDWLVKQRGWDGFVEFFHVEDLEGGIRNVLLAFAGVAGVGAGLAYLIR
Sequence of Genome polyprotein (P29990 2492-3391 limits assumed): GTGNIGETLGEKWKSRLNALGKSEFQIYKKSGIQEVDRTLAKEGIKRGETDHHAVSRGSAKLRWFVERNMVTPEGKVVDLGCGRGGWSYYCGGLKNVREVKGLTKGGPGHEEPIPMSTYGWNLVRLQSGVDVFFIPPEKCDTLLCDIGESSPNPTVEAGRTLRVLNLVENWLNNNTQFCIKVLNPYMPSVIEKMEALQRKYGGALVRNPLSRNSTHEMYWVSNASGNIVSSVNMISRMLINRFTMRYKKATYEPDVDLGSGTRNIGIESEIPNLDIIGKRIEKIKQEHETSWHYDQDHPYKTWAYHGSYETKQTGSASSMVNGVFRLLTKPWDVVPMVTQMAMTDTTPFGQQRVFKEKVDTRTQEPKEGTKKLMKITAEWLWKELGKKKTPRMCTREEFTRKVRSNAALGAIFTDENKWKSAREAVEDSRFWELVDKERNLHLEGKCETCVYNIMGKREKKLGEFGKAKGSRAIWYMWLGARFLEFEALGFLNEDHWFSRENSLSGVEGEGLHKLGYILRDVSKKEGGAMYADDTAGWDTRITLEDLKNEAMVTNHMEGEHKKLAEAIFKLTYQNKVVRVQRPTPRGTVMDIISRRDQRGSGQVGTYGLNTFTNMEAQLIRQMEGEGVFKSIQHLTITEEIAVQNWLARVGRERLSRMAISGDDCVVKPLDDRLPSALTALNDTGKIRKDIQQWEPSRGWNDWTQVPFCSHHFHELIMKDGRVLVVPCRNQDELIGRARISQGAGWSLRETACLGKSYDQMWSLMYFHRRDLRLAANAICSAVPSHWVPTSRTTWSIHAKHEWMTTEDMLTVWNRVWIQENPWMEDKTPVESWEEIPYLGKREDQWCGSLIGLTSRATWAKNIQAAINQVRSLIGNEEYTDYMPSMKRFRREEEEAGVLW

Cc1cc(-n2ccnc2)n2c(nc3ccccc32)c1C#N
IC50 (Coagulation factor XII): > 50 µM (inactive) | IC50 [1]: > 100 µM (active)

Cc1ccc(NC(=O)C2CCCCC2C(=O)O)cc1Cl (stereo not given)
IC50 [2]: > 100 µM (active)

O=C(/C=C/Nc1ccc(Oc2ccccc2Cl)cc1)c1ccco1
IC50 [2]: > 100 µM (active)

O=C(Cn1nnc(-c2ccc3c(c2)OCO3)n1)NCc1ccco1
IC50 (Estrogen receptor beta [3]): 19.6 µM (active) | IC50 (Estrogen receptor beta [4]): 3 µM (not active)

COc1ccc(CCNC(=O)c2ccc(CN3CCC(Cc4ccccc4)CC3)cc2)cc1
IC50 [2]: > 100 µM (active)

O=C1c2cccc3cccc(c23)N1Cc1ccc(F)cc1
IC50 (Bcl-2-related protein A1): > 20 µM (inactive) | IC50 [5]: 6.78 µM (active) | IC50 [6]: 5.15 µM (active)

COc1cc(C2C(C#N)=C(N)Oc3cc(C)oc(=O)c32)cc2c1OCO2 (stereo not given)
IC50 (Estrogen receptor): 26.2 µM (active) | IC50 (Estrogen receptor beta [3]): 13.6 µM (active) | IC50 (Estrogen receptor beta [4]): 9.24 µM (not active)

COc1ccc(S(=O)(=O)n2cc(C(N)=O)c3ccccc32)cc1
IC50 [7]: > 100 µM (not active) | IC50 [8]: > 100 µM (inactive)

COc1ccc(OCc2nn3c(-c4cccc(OC)c4)nnc3s2)cc1
IC50 [2]: > 100 µM (active)

Cn1c(C(=O)Nc2ccc3c(c2)OCO3)cc2c(=O)n(C)c3ccccc3c21
IC50 (Estrogen receptor): 22.6 µM (active) | IC50 (Estrogen receptor beta [3]): > 50 µM (not active) | IC50 (Estrogen receptor beta [4]): 0.0468 µM (not active)

CCCOc1ccc(C(=O)NC(=S)NNC(=O)c2c(-c3ccccc3)noc2C)cc1
EC50 [9]: 0.137 µM (active) | EC50 (Streptococcus): 0.596 µM (active) | EC50 [10]: 2.66 µM (active) | IC50 (Vero [11]): > 25 µM (active) | CC50 (Vero [12]): 12.1 µM (active)

Cc1sc2nc3ccc(N4CCCC4)nn3c(=O)c2c1C
IC50 [13]: > 50 µM (not active)

CN(Cc1ccccc1)C(=O)COC(=O)c1cc(-c2ccc(Cl)s2)nc2ccccc12
IC50 (Bcl-2-related protein A1): > 20 µM (inactive) | IC50 [5]: 11.8 µM (active) | IC50 [6]: > 20 µM (inactive)

O=S(=O)(Nc1ccc2ncccc2c1)c1ccccc1OC(F)(F)F
IC50 [7]: > 100 µM (not active) | IC50 [8]: > 100 µM (inactive)

COc1ccc(Cl)cc1C(=O)Nc1ccccc1N1CCN(C)CC1
EC50 [10]: 5.96 µM (active)

Cc1cc(SCC(=O)N/N=C/c2ccc(O)c(O)c2O)c(C)cc1Br
EC50 [14]: > 150 µM (inconclusive) | EC50 [15]: 11 µM (active) | EC50 [9]: 3.27 µM (active) | EC50 (cells [16]): 11.6 µM (active) | EC50 [17]: 13.9 µM (active) | EC50 [18]: 26.7 µM (active) | EC50 [19]: 1.45 µM (active) | EC50 (cells [20]): > 350 µM (not active) | IC50 [21]: 5.65 µM (active) | EC50 (Streptococcus): 6.34 µM (active) | IC50 [13]: > 50 µM (not active) | CC50 (Vero [22]): > 40 µM (active) | IC50 (Genome polyprotein): 17.4 µM (active) | CC50 [23]: 2.57 µM (active)
